IC50 data for 81 molecules are collected here from ChEMBL document CHEMBL3714766, “Tetrahydroisoquinoline compounds and their use as pyruvate dehydrogenase kinase inhibitors” (2015).

Structures are written as SMILES.

One experiment deals with T1, Pyruvate dehydrogenase kinase (Homo sapiens, UniProt Q15119+Q15120+Q16654+Q15118). Description: Binding affinity to pyruvate dehydrogenase kinase (unknown origin) by VER-00160364 probe based fluorescence polarization assay.
Settings: not given
As to `C[C@H]1CCc2cc(-c3nc(Cl)nc4c3ccn4C)ccc2N1C(=O)c1ccc(O)cc1O`, the IC50 was 1000 nM.

On to `O=C(c1ccc(O)cc1O)N1CCCc2cc(F)ccc21`, for which the IC50 was 100 nM.

As for `Cc1cnc(C)c(-c2ccc3c(c2)CCC(c2cccnc2)N3C(=O)c2ccc(O)cc2O)n1` (stereo unspecified), the IC50 turned out to be 10 nM.

Take `COc1cnc(Cl)nc1-c1ccc2c(c1)CCC(c1cccnc1)N2C(=O)c1ccc(O)cc1O` (stereo unspecified): the IC50 stood at 1000 nM.

`COCCN(C)S(=O)(=O)c1cnc(-c2ccc3c(c2)CC[C@H](C)N3C(=O)c2ccc(O)cc2O)c(C)c1` came in with a concentration for half-maximal inhibition (IC50) of 100 nM.

`CC1CCc2cc(F)ccc2N1C(=O)c1ccc(O)cc1O` (stereo unspecified) came in with an IC50 of 100 nM.

As for `Cc1cnc(Cl)nc1-c1ccc2c(c1)CC[C@H](C)C2C(=O)c1ccc(O)cc1O` (stereo partly specified), the IC50 is listed as 10 nM.

As to `Cc1cc(S(=O)(=O)NCc2cccnc2)cnc1-c1ccc2c(c1)CC[C@H](C)N2C(=O)c1ccc(O)cc1O`, the IC50 was 10 nM.

With `CN(C)C(=O)c1ccc2c(c1)CCCN2C(=O)c1ccc(O)cc1O`, the IC50 came out at 100 nM.

As to `CC1CCc2cc(Br)ccc2N1C(=O)c1ccc(O)cc1O` (stereo unspecified), the IC50 was determined as 1000 nM.

Molecule `CN(C(=O)c1ccc2c(c1)CCCN2C(=O)c1ccc(O)cc1O)c1cccc(F)c1` came in with an IC50 of 100 nM.

On to `C[C@@H]1CCc2ccccc2N1C(=O)c1cc(Cl)c(O)cc1O`, for which the IC50 was determined as 10000 nM.

Take `Nc1ccc2c(c1)CCCN2C(=O)c1ccc(O)cc1O`: the IC50 turned out to be 100 nM.

For the molecule `Cc1cc(S(=O)(=O)N2CCOCC2)cnc1-c1ccc2c(c1)CC[C@H](C)N2C(=O)c1ccc(O)cc1O`, the IC50 came out at 10 nM.

`Cc1cc(S(=O)(=O)NCCCC(N)=O)cnc1-c1ccc2c(c1)CC[C@H](C)N2C(=O)c1ccc(O)cc1O`: the IC50 is 10 nM.

For `C[C@@H]1CCc2cc(F)ccc2N1C(=O)c1cc(Cl)c(O)cc1O`, the IC50 was found to be 10000 nM.

Molecule `Cc1cc(S(=O)(=O)N2CC(F)(F)C2)cnc1-c1ccc2c(c1)CC[C@H](C)N2C(=O)c1ccc(O)cc1O` returned an IC50 of 10 nM.

`CC(=O)NCCNS(=O)(=O)c1cnc(-c2ccc3c(c2)CC[C@H](C)N3C(=O)c2ccc(O)cc2O)c(C)c1` yielded an IC50 of 10 nM.

`C[C@H]1CCc2cc(F)ccc2N1C(=O)c1ccc(O)cc1O` came in with an IC50 of 100 nM.

As to `C[C@H]1CCc2ccccc2N1C(=O)c1cc(F)c(O)cc1O`, the IC50 was found to be 100 nM.

`Cc1cc(S(=O)(=O)N2CCOCC2)cnc1-c1ccc2c(c1)CCC(c1cccnc1)N2C(=O)c1ccc(O)cc1O` (stereo unspecified) came in with an IC50 of 10 nM.

On to `Cc1cc(S(=O)(=O)NCc2ccccn2)cnc1-c1ccc2c(c1)CC[C@H](C)N2C(=O)c1ccc(O)cc1O`, for which the IC50 is on record as 10 nM.

The molecule `CCc1cc(C(=O)N2c3ccc(F)cc3CCC2C)c(O)cc1O` (stereo unspecified) gave an IC50 of 10000 nM.

`O=C(c1ccc(O)cc1O)N1c2ccccc2CCC1CNC(=O)C(F)(F)F` (stereo unspecified) gave an IC50 of 100 nM.

`COC(=O)c1ccc2c(c1)CCCN2C(=O)c1ccc(O)cc1O` yielded an IC50 of 1000 nM.

Regarding `C[C@@H]1CCc2ccccc2N1C(=O)c1ccc(O)cc1O`, the IC50 came to 10000 nM.

Regarding `CN(Cc1nc2ccccc2[nH]1)C(=O)c1ccc2c(c1)CCCN2C(=O)c1ccc(O)cc1O`, the IC50 was determined as 100 nM.

`C[C@H]1CCc2cc(F)ccc2N1C(=O)c1cc(Cl)c(O)cc1O` had a half-inhibitory concentration (IC50) of 100 nM.

Turning to `O=C(c1ccc(O)cc1O)N1c2ccccc2CCC1c1ccco1` (stereo unspecified), the IC50 came out at 1000 nM.

Regarding `COc1ccc2c(c1)CCCN2C(=O)c1ccc(O)cc1O`, the IC50 is reported as 100 nM.

On to `O=C(c1ccc(O)cc1O)N1c2ccccc2CCC1c1cccnc1` (stereo unspecified), for which the IC50 is recorded as 100 nM.

Molecule `CC(C)c1ccc2c(c1)CCCN2C(=O)c1ccc(O)cc1O` displayed an IC50 of 100 nM.

Consider `CC1CCc2cc(F)ccc2N1C(=O)c1cc(Cl)c(O)cc1O` (stereo unspecified), for which the IC50 was 100 nM.

The molecule `O=C(c1ccc(O)cc1O)N1CCCc2cc(OC(F)(F)F)ccc21` had an IC50 of 1000 nM.

Molecule `Cc1cc(N)cnc1-c1ccc2c(c1)CC[C@H](C)N2C(=O)c1ccc(O)cc1O` came in with an IC50 of 10 nM.

In turn, `Cc1ccc2c(c1)CCCN2C(=O)c1ccc(O)cc1O` came in with an IC50 of 100 nM.

Take `C[C@H]1CCc2cc(C(=O)O)ccc2N1C(=O)c1ccc(O)cc1O`: the IC50 stood at 10000 nM.

In turn, `CCNc1ccc(-c2ccc3c(c2)CC[C@H](C)N3C(=O)c2ccc(O)cc2O)c(C)n1` yielded an IC50 of 100 nM.

`Cc1cc(S(=O)(=O)N2CCN(C)CC2)cnc1-c1ccc2c(c1)CC[C@H](C)N2C(=O)c1ccc(O)cc1O` had a half-inhibitory concentration (IC50) of 10 nM.

With `CCOC(=O)CN(C)C(=O)c1ccc2c(c1)CCCN2C(=O)c1ccc(O)cc1O`, the IC50 is 1000 nM.

For `C[C@H]1CCc2cc(-c3ccnc4ccccc34)ccc2N1C(=O)c1ccc(O)cc1O`, the half-inhibitory concentration (IC50) is listed as 100 nM.

In the case of `O=C(c1ccc(O)cc1O)N1c2ccccc2CCC1c1cccs1` (stereo unspecified), the IC50 was 1000 nM.

As to `CC(C)C(=O)Nc1ccc2c(c1)CCCN2C(=O)c1ccc(O)cc1O`, the half-maximal inhibitory concentration (IC50) was 1000 nM.

In turn, `O=C(c1ccc(O)cc1O)N1CCCc2cc(OCc3ccccc3)ccc21` came in with an IC50 of 10000 nM.

On to `Cc1n[nH]c(C)c1C1CCc2ccccc2N1C(=O)c1ccc(O)cc1O` (stereo unspecified), for which the IC50 was found to be 1000 nM.

Regarding `Cc1cc(S(=O)(=O)NCc2cccs2)cnc1-c1ccc2c(c1)CC[C@H](C)N2C(=O)c1ccc(O)cc1O`, the IC50 amounted to 10 nM.

The molecule `CS(=O)(=O)NCC1CCc2ccccc2N1C(=O)c1ccc(O)cc1O` (stereo unspecified) displayed an IC50 of 100 nM.

`O=C(O)c1ccc2c(c1)CCCN2C(=O)c1ccc(O)cc1O` showed an IC50 of 10000 nM.

`Cc1cncnc1-c1ccc2c(c1)CCC(c1cccnc1)N2C(=O)c1ccc(O)cc1O` (stereo unspecified): the IC50 amounted to 10 nM.

Turning to `CN(CC(F)(F)F)C(=O)c1ccc2c(c1)CCCN2C(=O)c1ccc(O)cc1O`, the IC50 stood at 1000 nM.

Consider `O=C(c1ccc(O)cc1O)N1c2ccc(-c3ncnc4[nH]ccc34)cc2CCC1c1cccnc1` (stereo unspecified), for which the IC50 was 10 nM.

Consider `CC(=O)N1CCN(S(=O)(=O)c2cnc(-c3ccc4c(c3)CC[C@H](C)N4C(=O)c3ccc(O)cc3O)c(C)c2)CC1`, for which the IC50 is 10 nM.

For `Cc1cnc(Cl)nc1-c1ccc2c(c1)CCC(c1cccnc1)N2C(=O)c1ccc(O)cc1O` (stereo unspecified), the IC50 turned out to be 10 nM.

In the case of `O=C(c1ccc(O)cc1O)N1c2ccc(-c3nc4ccc(Cl)cc4cc3CO)cc2CCC1c1cccnc1` (stereo unspecified), the IC50 is listed as 100 nM.

`C[C@@H]1CCc2cc(F)ccc2N1C(=O)c1ccc(O)cc1O` returned an IC50 of 1000 nM.

The molecule `CSc1nc(-c2ccc3c(c2)CC[C@H](C)N3C(=O)c2ccc(O)cc2O)c2cc[nH]c2n1` had an IC50 of 1000 nM.

In the case of `O=C(c1ccc2c(c1)CCCN2C(=O)c1ccc(O)cc1O)N1CCc2ccccc21`, the 50% inhibitory concentration (IC50) stood at 100 nM.

`CC1CCc2cc(C(=O)N(C)C)ccc2N1C(=O)c1ccc(O)cc1O` (stereo unspecified): the IC50 amounted to 100 nM.

`C[C@H]1CCc2cc(C(=O)N(C)Cc3cccnc3)ccc2N1C(=O)c1ccc(O)cc1O` returned an IC50 of 100 nM.

In turn, `CC1CCc2cc(C(=O)N(C)CC(F)(F)F)ccc2N1C(=O)c1ccc(O)cc1O` (stereo unspecified) returned an IC50 of 100 nM.

Regarding `Cc1cc(S(=O)(=O)N2CCC(F)(F)CC2)cnc1-c1ccc2c(c1)CC[C@H](C)N2C(=O)c1ccc(O)cc1O`, the IC50 is given as 100 nM.

For `O=C(c1ccc2c(c1)CCCN2C(=O)c1ccc(O)cc1O)N1CCCCC1`, the half-inhibitory concentration (IC50) stood at 100 nM.

The molecule `C[C@H]1CCc2ccccc2N1C(=O)c1ccc(O)cc1O` had an IC50 of 100 nM.

`O=C(c1ccc(O)cc1O)N1CCCc2cc(Br)ccc21` had an IC50 of 1000 nM.

Turning to `O=C(c1ccc(O)cc1O)N1c2ccccc2CCC1c1ccccn1` (stereo unspecified), the IC50 amounted to 1000 nM.

In turn, `COCCNS(=O)(=O)c1cnc(-c2ccc3c(c2)CC[C@H](C)N3C(=O)c2ccc(O)cc2O)c(C)c1` registered a concentration for half-maximal inhibition (IC50) of 100 nM.

The molecule `CCN(CC)S(=O)(=O)c1ccc2c(c1)CCC(C)N2C(=O)c1ccc(O)cc1O` (stereo unspecified) displayed an IC50 of 100 nM.

`Cc1cc(S(=O)(=O)NCC2CC2)cnc1-c1ccc2c(c1)CC[C@H](C)N2C(=O)c1ccc(O)cc1O` returned an IC50 of 100 nM.

In turn, `C[C@H]1CCc2ccccc2N1C(=O)c1cc(Cl)c(O)cc1O` displayed an IC50 of 100 nM.

The molecule `O=C(c1ccc(O)cc1O)N1c2ccccc2CCC1c1ccn[nH]1` (stereo unspecified) gave an IC50 of 100 nM.

On to `O=C(c1ccc(O)cc1O)N1c2ccccc2CC[C@@H]1c1cccnc1`, for which the IC50 is reported as 100 nM.

`O=C(c1ccc2c(c1)CCCN2C(=O)c1ccc(O)cc1O)N1Cc2ccccc2C1` had an IC50 of 1000 nM.

On to `CC1CCc2cc(C(=O)N3CCCCC3)ccc2N1C(=O)c1ccc(O)cc1O` (stereo unspecified), for which the concentration for half-maximal inhibition (IC50) was determined as 100 nM.

`CCc1nccnc1-c1ccc2c(c1)CCC(c1cccnc1)N2C(=O)c1ccc(O)cc1O` (stereo unspecified): the IC50 came out at 10 nM.

As for `CN(Cc1ccccn1)C(=O)c1ccc2c(c1)CCCN2C(=O)c1ccc(O)cc1O`, the IC50 is 1000 nM.

For `COCCOc1ncc(C)c(-c2ccc3c(c2)CC[C@H](C)N3C(=O)c2ccc(O)cc2O)n1`, the IC50 is on record as 100 nM.

`CC1CCc2ccccc2N1C(=O)c1ccc(O)cc1O` (stereo unspecified) yielded a concentration for half-maximal inhibition (IC50) of 100 nM.

Turning to `C[C@H]1CCc2cc(-c3ncnc4cccc(F)c34)ccc2N1C(=O)c1ccc(O)cc1O`, the IC50 is given as 10 nM.

`Cc1cccnc1-c1ccc2c(c1)CCC(CNS(C)(=O)=O)N2C(=O)c1ccc(O)cc1O` (stereo unspecified) yielded an IC50 of 100 nM.

As for `Cc1cc2ccc(F)cc2nc1-c1ccc2c(c1)CCC(c1cccnc1)N2C(=O)c1ccc(O)cc1O` (stereo unspecified), the IC50 was 10 nM.

Regarding `Cc1cccnc1-c1ccc2c(c1)CCC(c1cccnc1)N2C(=O)c1ccc(O)cc1O` (stereo unspecified), the IC50 is recorded as 10 nM.

In the next experiment the target is T1, Pyruvate dehydrogenase kinase. Briefly: Inhibition of pyruvate dehydrogenase kinase in human PC3 cells incubated for 90 mins by phospho(Ser293)E1alpha MSP ELISA method. Format: cell-based. Particulars: pc-3.
As to `C[C@H]1CCc2cc(-c3nc(Cl)nc4c3ccn4C)ccc2N1C(=O)c1ccc(O)cc1O`, the half-inhibitory concentration (IC50) was 1000 nM.

`Cc1cc(N)cnc1-c1ccc2c(c1)CC[C@H](C)N2C(=O)c1ccc(O)cc1O` registered an IC50 of 1000 nM.

Molecule `CCNc1ccc(-c2ccc3c(c2)CC[C@H](C)N3C(=O)c2ccc(O)cc2O)c(C)n1` gave an IC50 of 1000 nM.

The molecule `C[C@H]1CCc2cc(-c3ccnc4ccccc34)ccc2N1C(=O)c1ccc(O)cc1O` gave an IC50 of 1000 nM.

`Cc1cc(S(=O)(=O)NCc2cccs2)cnc1-c1ccc2c(c1)CC[C@H](C)N2C(=O)c1ccc(O)cc1O` gave an IC50 of 1000 nM.

As to `CSc1nc(-c2ccc3c(c2)CC[C@H](C)N3C(=O)c2ccc(O)cc2O)c2cc[nH]c2n1`, the IC50 came to 1000 nM.

Molecule `COCCNS(=O)(=O)c1cnc(-c2ccc3c(c2)CC[C@H](C)N3C(=O)c2ccc(O)cc2O)c(C)c1` showed a 50% inhibitory concentration (IC50) of 10000 nM.

Take `Cc1cc(S(=O)(=O)NCC2CC2)cnc1-c1ccc2c(c1)CC[C@H](C)N2C(=O)c1ccc(O)cc1O`: the IC50 is 1000 nM.

In the case of `COCCOc1ncc(C)c(-c2ccc3c(c2)CC[C@H](C)N3C(=O)c2ccc(O)cc2O)n1`, the IC50 came to 1000 nM.

`C[C@H]1CCc2cc(-c3ncnc4cccc(F)c34)ccc2N1C(=O)c1ccc(O)cc1O` had an IC50 of 1000 nM.
